What was measured:
in vivo = settings: for Co (Brain), highest pro-galantamine concentration achieved in mouse brain: i.v. injection of 3 mg/kg, for Gal: galantamine after the same amount of galantamine; for Kp: in vivo
Procedure: In table 1, the key pharmacokinetic data of benzoyl-galantamine, of several other R1-pro-galantamines and of galantamine (for comparison) are listed. Table 1: Pharmacokinetic data of several R1-pro-galantamines in the mouse
Co is the highest pro-galantamine concentration (ng/ml) achieved in mouse brain after i.v. injection of 3 mg/kg of pro-galantamine. R-Pro ist he brain-to-blood concentration ratio of pro-galantamine, R-Gal that of galantamine under these experimental conditions. For comparison, Co and R-Gal are also provided for i.v. injection of the same amount of galantamine.
• Figure 1: Brain esterase inhibition by galantamine and several pro-galantamines. A 20% mouse brain homogenate was used, supplemented with 200 µM of acetylthiocholine as substrate, and the initial reaction kinetics were measured according to Riddles PW, Blakeley RL, Zerner B., "Reassessment of Ellman's reagent." Methods Enzymol. 1983;91:49-60. […] In derivative Gln 1063 R1 in formula I is -O-Si(CH3)2-C(CH3)2-C(CH3)2H. • Figure 2: Enzymatic cleavage of pro-galantamine to galantamine. Butyrylcholinesterase, 25 units/ml, was used. Reaction temperature was 37°C. Appearance of the fluorescent reaction product galantamine was determined by fluorescence detection. • Figure 3: Interaction of galantamine and pro-galantamine with a4ß2 neuronal nicotinic acetylcholine receptor ectopically expressed in HEK-293 cells. The increase in response to acetylcholine in the presence of galantamine and Gln-1062, respectively, was determined by whole-cell patch clamp recording. […] Scopolamine induces a memory deficit that can be measured by […] alternation in a T-maze trial. The cognition enhancing drugs were i.p. injected at several different doses together with scopolamine 20 min before a T-maze trial. Recovery was measured as a function of dose, and the EC50 was determined for each drug.
Determination of the pharmacokinetic profiles of Gln-1062 and its cleavage product galantamine in blood and brain. Determine the brain-to-blood concentration ratios of Gln-1062 and its cleavage product galantamine, and assess the blood-brain barrier penetration capacities.
Blood samples were collected from the retro-orbital plexus. 0.5 ml of blood was collected into a pre-labeled polypropylene micro centrifuge tube containing sodium citrate as the anticoagulant, and kept on ice.
Immediately after blood withdrawal, brain was perfused with phosphate buffer saline (pH 7.4), removed and frozen on dry ice.
Brain samples were thawed on ice and weighed. An appropriate volume ice cold homogenizing media (methanol: water::20:80,v/v) added. On ice, homogenized the brain sample with the polytron homogenizer and make up the volume with homogenizing media to get 1 gm of brain per 4 mL of homogenate. After homogenizing, immediately freezed the brain homogenate samples at -80°C until analysis.

[1] = logP (partition coefficient); type: physicochemical; settings: source of the values not stated
Text: "logP" is defined as the decadic logarithm of the partition coefficient P which is the ratio of […], as the neutral molecule.

[2] = biological target: T1, a4ß2 neuronal nicotinic acetylcholine receptor (Homo sapiens, UniProt P17787+P43681); test: Allosteric potentiation of nAChR in HEK-293 cells, whole-cell patch clamp; type: cell-based; settings: increase in response to acetylcholine, Figure 3
T1 construct: expressed in transfected cells; host or cells: HEK-293
Procedure: (§1) 1983;91:49-60. […] Butyrylcholinesterase, 25 units/ml, was used. Reaction temperature was 37°C.
Investigation of the allosteric modulation effect of drug candidates on nicotinic acetylcholine receptors (nAChRs) expressed in HEK-293 cells by electrophysiology. Results shown as figure 3
Single HEK-293 cells expressing either human α4β2, human α3β4, or chimeric chicken α7 (with mouse 5HT3) nAChR were plated on fibronectin-coated cover slips for 3 days before measurement. The selected nAChR containing cells were placed in the recording bath, filled with extracellular buffer (145 mM NaCl, 5 mM KCl, 1 mM MgCl2, 2 mM CaCl2, 10 mM D-glucose, 10 mM HEPES, pH 7.3, approximately 300 mOsm). […] A programmable puller (Sutter, USA) was used to prepare a twin pair of ready for use pipettes. […] 1, 5, 10, 50, 100, 500, 1,000, 5,000 and 10,000 nM, and solutions were applied to the cell surface during 500 ms pulses through the U-tube, and then corresponding currents, digitized to 10 kHz, were recorded for 10 s. […] The averaged peak amplitudes of the currents, measured in the presence of selected compound concentrations, were compared with those determined in the absence of compounds (control) and they were calculated as % of control. […]

[3] = galantamine administered as the unmodified drug; cited from earlier work
brain cholinesterase = biological target: T2, brain cholinesterase (Mus musculus, UniProt P21836); test: Inhibition of brain esterase, modified Ellman test in mouse brain homogenate; type: biochemical; settings: 20% mouse brain homogenate, 200 µM acetylthiocholine; Figure 1
T2 construct: from tissue; host or cells: mouse brain homogenate
T2 sequence (P21836 32-614): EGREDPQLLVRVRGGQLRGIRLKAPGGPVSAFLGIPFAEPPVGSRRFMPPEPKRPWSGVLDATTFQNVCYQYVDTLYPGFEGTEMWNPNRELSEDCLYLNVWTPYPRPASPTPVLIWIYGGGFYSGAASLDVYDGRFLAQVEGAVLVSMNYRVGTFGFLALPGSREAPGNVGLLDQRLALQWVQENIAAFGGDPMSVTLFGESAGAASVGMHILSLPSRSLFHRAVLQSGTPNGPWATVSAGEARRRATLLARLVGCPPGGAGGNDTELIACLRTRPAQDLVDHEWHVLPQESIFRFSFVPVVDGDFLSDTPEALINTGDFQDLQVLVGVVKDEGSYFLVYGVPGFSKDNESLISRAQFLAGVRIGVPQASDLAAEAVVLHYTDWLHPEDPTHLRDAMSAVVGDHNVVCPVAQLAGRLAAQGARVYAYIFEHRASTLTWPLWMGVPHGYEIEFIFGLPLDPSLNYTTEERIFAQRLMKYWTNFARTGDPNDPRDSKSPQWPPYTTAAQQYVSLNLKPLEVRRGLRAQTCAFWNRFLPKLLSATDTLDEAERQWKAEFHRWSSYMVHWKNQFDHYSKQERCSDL
Procedure: as §1
The brain is removed from the animal (mouse), shock frozen in liquid nitrogen and stored at minus 80°C until use. Before preparing the extract, the frozen brain is thawed on ice and the weight is determined. Ice cold buffer (130 mM NaCl, 5 mM KCl, 2.5 mM CaCl2, 1 mM MgCl2, 5 mM Glucose, 5 mM HEPES, pH 7.4) is added to the thawed mouse brain (1:4, weight to volume, resulting in a 20 % brain homogenate). The tissue is then homogenized in a potter homogeniser on ice, moving the piston up and down 11 times at 240 rpm. The freshly prepared mouse brain homogenate is divided into aliquots.
A modified Ellmann's esterase test is used. Briefly the method relies on the cleavage of the substrate acetylthiocholine to acetate and thiocholine. […] The inhibition is expressed as per cent of the non inhibited reaction according to following equation: % Inhibition = 100*(1-(Slopeinhibited/Slopenoninhibited)). […]

[4] = Reversal from scopolamine-induced amnesia in mice (T-maze alternation); type: in vivo; settings: i.p., Figure 6
Procedure: as §1
Gln 1062, Gln 0979 and galanthamine were dissolved in 15% -hydroxypropyl-β-cyclodextrin in 96 mM NaCl (isotonic) supplied by the sponsor. Gln 1062 and Gln 0979 were used in concentrations of […], 0.03, 0.1 and 0.2 mg/ml, which when given in a volume of 10 ml/kg result in doses of 0.1, 0.3, 1 and 2 mg/kg i.p., respectively. Galanthamine was used in concentrations of 0.03, 0.1, 0.2 and 0.5 mg/ml, which when given in a volume of 10 ml/kg result in doses of 0.3, 1, 2 and 5 mg/kg i.p., respectively. Control animals received 15% -hydroxypropyl-β-cyclodextrin in 96 mM NaCl injection as a vehicle. […]
The potential cognitive enhancing property of Gln 1062, Gln 0979 and galanthamine were evaluated in scopolamine-treated mice in the T-maze alternation model under the same experimental conditions. […]
Memory performance was assessed by the percentage of spontaneous alternation in the T-maze. […]
The percentage of alternation over the 14 free-choice trials was determined for each mouse and was used as an index of working memory performance. […]
Analysis of variance (ANOVA) was performed on the result data. […] The drug induced reversion of scopolamine-induced memory deficit was calculated by setting the respective response of the saline/vehicle group as 100% and the scopolamine/vehicle group as 0% reversion. […]

T1 sequence (P43681 29-627 limits assumed): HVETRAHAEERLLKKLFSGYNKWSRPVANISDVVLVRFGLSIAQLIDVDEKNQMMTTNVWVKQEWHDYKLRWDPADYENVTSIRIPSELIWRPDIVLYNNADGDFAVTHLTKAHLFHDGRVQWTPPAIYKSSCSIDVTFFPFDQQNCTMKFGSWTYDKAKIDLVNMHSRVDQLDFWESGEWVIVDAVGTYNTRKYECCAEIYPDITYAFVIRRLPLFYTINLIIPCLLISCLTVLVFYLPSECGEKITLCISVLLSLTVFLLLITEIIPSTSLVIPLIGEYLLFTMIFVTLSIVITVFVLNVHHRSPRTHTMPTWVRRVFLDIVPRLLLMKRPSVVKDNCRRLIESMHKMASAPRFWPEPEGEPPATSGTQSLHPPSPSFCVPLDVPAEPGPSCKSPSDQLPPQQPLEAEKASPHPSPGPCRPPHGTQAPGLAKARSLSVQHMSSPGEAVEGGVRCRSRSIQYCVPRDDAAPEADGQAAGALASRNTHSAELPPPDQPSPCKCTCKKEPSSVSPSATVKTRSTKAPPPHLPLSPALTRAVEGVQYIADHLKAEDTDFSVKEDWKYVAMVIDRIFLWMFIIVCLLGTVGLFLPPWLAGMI
T1 sequence (P17787 26-502): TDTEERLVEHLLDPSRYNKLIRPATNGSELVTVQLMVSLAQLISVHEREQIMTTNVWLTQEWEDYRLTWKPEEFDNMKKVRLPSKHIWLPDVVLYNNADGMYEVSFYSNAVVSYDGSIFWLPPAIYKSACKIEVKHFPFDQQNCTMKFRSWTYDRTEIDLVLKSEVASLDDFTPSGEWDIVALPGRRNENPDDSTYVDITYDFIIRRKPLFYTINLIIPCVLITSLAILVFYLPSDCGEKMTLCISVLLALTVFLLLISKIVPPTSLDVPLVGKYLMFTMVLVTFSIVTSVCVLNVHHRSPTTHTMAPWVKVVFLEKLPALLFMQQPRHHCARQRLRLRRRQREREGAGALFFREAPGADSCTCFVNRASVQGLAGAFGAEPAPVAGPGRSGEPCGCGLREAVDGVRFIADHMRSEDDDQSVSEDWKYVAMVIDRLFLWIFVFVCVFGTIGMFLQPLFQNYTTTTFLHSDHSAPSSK

Structure (SMILES)	Co (Brain), highest pro-galantamine concentration achieved in mouse brain (in vivo) [ng/mL]	Kp (in vivo; mouse)	Kp (in vivo; mouse, iv, 3 mg/kg)	logP [1]	maximal enhancement of response [2]	brain-to-plasma ratio [3]	brain-to-blood concentration ratio (RBB-proGal) (in vivo; mice)	concentration in blood at start of curve (in vivo; mouse blood, 3mg/kg, Figure 4b)	R-Pro, brain-to-blood concentration ratio of pro-galantamine (in vivo; mouse, i.v. 3 mg/kg of pro-galantamine)	R-Gal, brain-to-blood concentration ratio of galantamine (in vivo; mouse, i.v. 3 mg/kg of pro-galantamine, for Gal: same amount of galantamine)	inhibition of brain esterase (brain cholinesterase)	efficacy in reversing scopolamine-induced amnesia relative to galantamine [4]
COc1ccc2c3c1O[C@H]1C[C@@H](O)C=C[C@@]31CCN(C)C2 [Gal, galantamine]	1741	~1.3	1.2	1.7	~ 40%	~ 1.3	–	–	–	–	–	–
COc1ccc2c3c1O[C@H]1C[C@@H](OC(=O)c4ccccc4)C=C[C@@]31CCN(C)C2 [Gln 1062, (4aS,6R,8aS)-4a,5,9,10,11,12-Hexahydro-3-methoxy-11-methyl-6H-benzofuro[3a,3,2-ef][2]benzazepin-6-ol, benzoate (ester)]	4812	–	–	3	~ 17%	–	> 19	about 0.3 µg/g	19.3	2.2	little, if any cholinesterase inhibitory activity	approximately 4 times
